Experimental data: patent publication US20220304349A1, “Steviol Glycoside Compositions for Oral Ingestion or Use” (CARGILL, Incorporated, priority 2016, published 2022)

Key:
[1] = SEV measurement by trained sensory panel in citric acid buffer at pH=3.0; format: in vivo, human; settings: for SEV: citric acid buffer pH=3.0; for Sucrose equivalent value / relative sweetness scale- sucrose = 1: 250 ppm in citric buffer, pH = 3.0
From the text: Sweetness may be determined by measuring sucrose equivalent values (SEV) using methods and processes well known to those skilled in the art. For example, SEV may be determined by measuring sweetness equivalence to a reference sucrose solution. Typically, taste panelists are trained to detect and scale sweetness of reference sucrose solutions containing between 10 g to 150 g sucrose/kg (1 to 15 wt % aqueous sucrose solution). A sweetener composition containing one or more glycosides are then tasted at a series of dilutions to determine the concentration of the sweetener composition that is as sweet as a given sucrose reference. For example, if a sweetened solution is as sweet as a 5 wt % sucrose solution, then the sweetened solution is assigned a SEV of 5.
SEV measurements for SG101-104 (listed above and in Table 12) were performed according to the following procedure: A trained sensory panel evaluated solutions of SG101, SG102, SG103, and SG104 at the concentrations specified. Solutions were made in a citric acid buffer at pH=3.0. All solutions were heated to 55° C. for 12 minutes to ensure that all the glycoside material was completely dissolved. The solutions were allowed to cool to room temperature before serving to the panelists. Each solution was given a random 3-digit code and was served to the panelists in random order. Panelists dispensed 2 mL of each solution into their mouths from a pipette. The panelists were then asked to rate the “sweetness intensity” of the solutions and mark their responses on an un-anchored, 15 cm line scale. The length of the line corresponds to the scale values (1-15) on which the participants were trained. The panelists' responses were measured, compiled, and averaged for each sample. Each sample was tested by approximately 12 trained panelists.

[2] = Sensory evaluation by experienced tasters in unsweetened black tea (Example 5, Test A); format: in vivo, human; settings: about 200 ppm in tea
Description: (§1) Glycoside samples (SG101-104) were isolated and purified from fermentation broth, purified Rebs A, B, and D are of leaf origin and Reb M is chemically synthesized. All samples were dissolved in reverse osmosis water at the concentrations indicated. Unsweetened black tea was used in one set of experiments. Approximately 2-3 milliliters of each solution was tasted and sensory evaluations conducted by two to three experienced tasters. Test A

[3] = Sensory evaluation by two to three experienced tasters, solutions in reverse osmosis water (Example 5, Tests A and B); format: in vivo, human
Description: as §1
As used herein, “sucrosey” means having a flavor profile, a sweetness profile, or a flavor profile and a sweetness pofile more similar to that of sucrose.

[4] = in vivo; cited from earlier work
[5] = Sweetness time intensity (TI) profile in water, SG composition Lot B versus RebM; format: in vivo, human; settings: sweetness TI in water vs RebM
Description: Comparison of SG composition Lot B and RebM using TI for sweet.
Training: Descriptive panelists, who are highly trained and experienced on-call taste panelists, had four training sessions. They trained with sucrose references. Then they practiced scoring the samples using the scale on the ballot using a time intensity scale.
Testing: There was at least a 10 minute break in between samples. They were provided with filtered water, sparkling water, carrots, unsalted rice crackers and unsalted saltine crackers during break only. All samples were evaluated in a balanced sequential order one at a time. Panelists swallowed the sample at 10 seconds.
Serving Size/Container: 15 g in a 2 oz cup Serving Temp Room temperature
Sweetness Results (12 panelists; 3 replicates)

[6] = Equilibrium solubility: heating in deionized water at 80° C. for 15 minutes, cooling to room temperature, observation up to 4 days; format: physicochemical; parameters: key to equilibrium solubility at stated concentration: Clear solutions without precipitates are considered soluble; settings: for equilibrium solubility: after 80° C. for 15 minutes, at room temperature, up to 4 days
From the text: The composition can optionally be expressed in terms of the concentration of one or more steviol glycoside(s). […] Clear solutions without precipitates are considered soluble. Unless indicated otherwise herein, the term “solubility” refers to “equilibrium solubility.” […]

[7] = cited from earlier work
[8] = Instantaneous solubility: vigorous mixing with deionized water for 10 minutes at room temperature; format: physicochemical; parameters: key to instantaneous solubility at stated concentration: Clear solutions without precipitates are considered soluble; settings: for concentration of the rebaudioside in the instantaneously soluble 0.37% solution of the fermentation composition: room temperature water; for instantaneous solubility: water, room temperature
Description: The composition can optionally be expressed in terms of the concentration of one or more steviol glycoside(s). […] Clear solutions without precipitates are considered soluble. Unless indicated otherwise herein, the term “solubility” refers to “equilibrium solubility.”
Instantaneous solubility is determined by mixing steviol glycoisde with deionized water vigorously for 10 minutes at room temperature. […] Clear solutions without precipitates are considered soluble.

C=C1C[C@@]23CCC4[C@](C)(C(=O)OC5OC(CO)C(O)C(OC6OC(CO)C(O)C(O)C6O)C5OC5OC(CO)C(O)C(O)C5O)CCC[C@@]4(C)[C@@H]2CC[C@]1(OC1OC(COC2OC(CO)C(O)C(O)C2O)C(O)C(OC2OC(CO)C(O)C(O)C2O)C1OC1OC(CO)C(O)C(O)C1O)C3 (stereo partly shown) [SG102]
SEV ([1]; 200 ppm): 1.0 | SEV ([1]; 400 ppm): 1.5 | Sensory comments [2]: Not sweet, slightly less astringent, some additional roundedness | Sensory comments ([3]; 200 ppm in water, Test A): a bit sweeter than SG101, sweetness does have quick onset

C=C1C[C@@]23CCC4[C@](C)(C(=O)OC5OC(CO)C(O)C(O)C5OC5OC(CO)C(O)C(O)C5O)CCC[C@@]4(C)[C@@H]2CC[C@]1(OC1OC(COC2OC(CO)C(O)C(O)C2O)C(O)C(OC2OC(CO)C(O)C(O)C2O)C1OC1OC(CO)C(O)C(O)C1O)C3 (stereo partly shown) [SG101]
SEV ([1]; 200 ppm): 0.6 | SEV ([1]; 400 ppm): 1.2 | SEV ([1]; 500 ppm): 1.6 | Sensory comments [2]: Zero sweetness, seems less than in water, naked tea | Sensory comments ([3]; 200 ppm in water, Test A): not sweet, astringent, cloying—mouth drying on the tongue

C=C1C[C@@]23CC[C@H]4[C@@](C)(CCC[C@@]4(C)C(=O)O[C@@H]4O[C@H](CO)[C@@H](O)[C@H](O[C@@H]5O[C@H](CO)[C@@H](O)[C@H](O)[C@H]5O)[C@H]4O[C@@H]4O[C@H](CO)[C@@H](O)[C@H](O)[C@H]4O)[C@@H]2CC[C@]1(O[C@@H]1O[C@H](CO)[C@@H](O)[C@H](O[C@@H]2O[C@H](CO)[C@@H](O)[C@H](O)[C@H]2O)[C@H]1O[C@@H]1O[C@H](CO)[C@@H](O)[C@H](O)[C@H]1O)C3 [Reb M, rebaudioside M]
sweetness characteristics [4]: higher sweetness intensity and is more potent than other steviol glycosides | Perimeter [5]: 58.3 | AUC ([5]; area under the curve (total)): 132.9a | Plateau Time ([5]; duration of peak intensity): 4.1a | Tdur ([5]; duration time of sensation): 35.4a | Imax ([5]; peak intensity, 12 panelists, 3 replicates): 5.9 | APostMax ([5]; post-peak area under the curve): 90.0a | APreMax ([5]; pre-peak area under the curve): 43.0 | Rate Decrease ([5]; slope after peak intensity): −0.2a | Rate Increase ([5]; slope before peak intensity): 0.7 | Tonset ([5]; time sensation is first perceived): 0.8 | Text ([5]; time to extinction): 36.3a | equilibrium solubility at stated concentration ([6]; 0.10%): soluble | equilibrium solubility at stated concentration ([6]; 0.13%): soluble | equilibrium solubility at stated concentration ([6]; 0.20%): soluble | equilibrium solubility at stated concentration ([6]; 0.30%): insoluble | equilibrium solubility [6]: at least 0.2% | equilibrium solubility ([6]; listed as rebaudioside M): about 0.2% | aqueous solubility in words [7]: poor aqueous solubility and dissolution qualities in beverage formulations | instantaneous solubility at stated concentration ([8]; 0.10%): soluble | instantaneous solubility at stated concentration ([8]; 0.13%): soluble | instantaneous solubility at stated concentration ([8]; 0.20%): insoluble | instantaneous solubility at stated concentration ([8]; 0.30%): insoluble | improvement (increase) in instantaneous solubility over the pure rebaudioside ([8]; in the presence of compounds SG101-104 (fermentation derived composition)): > 60% | concentration of the rebaudioside in the instantaneously soluble 0.37% solution of the fermentation composition [8]: 0.21% | concentration of the rebaudioside in the instantaneously soluble 0.37% solution of the fermentation composition ([8]; listed as reb M): about 0.21% | instantaneous solubility [8]: at least 0.13% | instantaneous solubility ([8]; listed as rebaudioside M): about 0.13% | Sensory comments [2]: Nice subtle sweetness, feels like sugar, but with long linger very good | Sensory comments ([3]; 200 ppm in water, Test A): Typical mid-sweet for Reb M, fairly well rounded, quick rise, some tailing, some bitter | Sensory comments ([3]; 400 ppm in water, Test A): Higher sweet, faster onset than 200 ppm, cotton candy sweetness-skews to HFCS longer linger, sharper bitterness—but not oppressing sweetness | Sensory comments ([3]; Reb M alone in water, Test B, concentration not stated at the comment): clean, sweet, spiky sweetness

C=C1C[C@@]23CCC4[C@](C)(C(=O)OC5OC(CO)C(O)C(O)C5OC5OC(CO)C(O)C(O)C5O)CCC[C@@]4(C)[C@@H]2CC[C@]1(OC1OC(CO)C(O)C(OC2OC(COC4OC(CO)C(O)C(O)C4O)C(O)C(O)C2O)C1OC1OC(CO)C(O)C(O)C1O)C3 (stereo partly shown) [SG103]
Sucrose equivalent value [1]: 4.8 | relative sweetness scale- sucrose = 1 [1]: 192X | Sensory comments [2]: Slower onset than Reb M by itself, not as sweet as Reb M, slightly more licorice aftertaste | Sensory comments ([3]; 200 ppm in water, Test A): as sweet or sweeter than 200 ppm Reb M, more sucrosey, sugary quality characteristics (high fructose corn syrup (HFCS), cotton candy notes) are reminiscent of Reb M at 400 ppm but not as sweet, “fuller” feeling

C=C1C[C@@]23CCC4[C@](C)(C(=O)OC5OC(CO)C(O)C(OC6OC(CO)C(O)C(O)C6O)C5OC5OC(CO)C(O)C(O)C5O)CCC[C@@]4(C)[C@@H]2CC[C@]1(OC1OC(CO)C(O)C(OC2OC(COC4OC(CO)C(O)C(O)C4O)C(O)C(O)C2O)C1OC1OC(CO)C(O)C(O)C1O)C3 (stereo partly shown) [SG104]
Sucrose equivalent value [1]: 6.5 | relative sweetness scale- sucrose = 1 [1]: 260X | Sensory comments [2]: As sweet as Reb M, very sucrosey compared to Reb M, a little back end licorice | Sensory comments ([3]; 200 ppm in water, Test A): as sweet or sweeter than 200 ppm Reb M, more rounded sweetness, enhanced sugar quality effects (sensations reminiscent of sucrose, vanilla), “fuller” feeling
